Experimental data from US4395403A, “Polypeptides, processes for their production, pharmaceutical compositions comprising said polypeptides and their use” (Sandoz Ltd., priority 1979, dated 1983).

Legend:
[1] = system: GH-secretion (serum GH-level); test: TEST I: depression of serum GH-levels in the rat (GH-secretion inhibition); type: in vivo; settings: male rats under Nembutal narcosis, 15 minutes after administration
Procedure: This test (TEST I) is carried out employing male rats under Nembutal narcosis. The test-substance is administered at varying, logarithmically staggered doses employing at least 4 rats per dose. The rats are decapitated 15 minutes after administration, the blood is collected and the serum GH-level determined by radio-immuno-assay.
Polypeptides in accordance with the invention are active in this test when administered at a dosage in the range of from 0.01 to 100 μg/kg i.v. or i.m.

gastric secretion = test: TEST II: inhibition of pentagastrin-stimulated gastric secretion in pylorus-ligated rats; type: in vivo, rat; settings: i.m., 100 μg/kg pentagastrin s.c., 30 mins
Procedure: Male rats (220-280 g) are kept in the laboratory in individual cages for several days (14 hours light/day) with 48 hours fasting (but free access to water) immediately prior to the experiment. At start of the experiment the pylorus is ligated under ether anaesthesia and 100 μg/kg pentagastrin are injected s.c. to stimulate gastric secretion. The test compounds are injected simultaneously i.m. 30 mins. later the animals are sacrificed, the volume of gastric juice measured and the acid concentration estimated (titration with thymol blue). The acid output is calculated and the percent inhibition estimated in relation to untreated controls.
Polypeptides in accordance with the invention are active in this test when administered at a dosage in the range of from 0.01 to 100 μg/kg i.m.

SMILES: C[C@H](N)C(=O)NCC(=O)N[C@H]1CSSC[C@@H](C(=O)O)NC(=O)[C@H](CO)NC(=O)[C@H]([C@@H](C)O)NC(=O)[C@H](Cc2ccccc2)NC(=O)[C@H]([C@@H](C)O)NC(=O)[C@H](CCCCN)NC(=O)[C@H](Cc2c[nH]c3ccccc23)NC(=O)[C@H](Cc2ccccc2)NC(=O)[C@H](Cc2ccccc2)NC(=O)[C@H](CC(N)=O)NC(=O)[C@H](CCCCN)NC1=O [somatostatin]
- ID50 in TEST I (amount required to effect 50% inhibition of serum GH-level compared with untreated controls) ([1]; i.m.): 0.0056 mg/kg
- ID50 in TEST I (amount required to effect 50% inhibition of serum GH-level compared with untreated controls) ([1]; i.v.): 0.062 mg/kg
- ID50 in TEST II for acid concentration (gastric secretion): 0.035 mg/kg
- ID50 in TEST II for gastric juice content (gastric secretion): 0.055 mg/kg

SMILES: C[C@@H](O)[C@@H]1NC(=O)[C@H](CCCCN)NC(=O)[C@@H](Cc2c[nH]c3ccccc23)NC(=O)[C@H](Cc2ccccc2)NC(=O)[C@@H](NC(=O)[C@H](N)Cc2ccccc2)CSSC[C@@H](C(=O)N[C@H](CO)[C@@H](C)O)NC1=O [Example 1]
- ID50 in TEST II for acid concentration (gastric secretion): 0.0004 mg/kg
- ID50 in TEST II for gastric juice content (gastric secretion): 0.0007 mg/kg
